Assay results from patent US10669238B2, “Irreversible bruton's tyrosine kinase inhibitor” (HEFEI INSTITUTES OF PHYSICAL SCIENCE, CHINESE ACADEMY OF …, priority 2016, dated 2020).

Molecular target: BTK protein kinase (Homo sapiens, UniProt Q06187)
Assay: In vitro enzymatic activity against BTK (ADP-Glo)
Format: biochemical
Details: compound with BTK 4 hours at room temperature, ATP 10 μM, 37° C. 1 hour
Experimental: In vitro enzymatic activity of the compounds against BTK was determined in a experimental assay of in vitro enzymatic activity using […] kit (purchased from Progema, USA).
9 μL of BTK protein kinase (at a concentration of 1.5 ng/μL) was used to react with compounds (1 μL) shown in the following table that were diluted three times in gradient at room temperature for 4 hours (the final concentration of the compound being 10 μM, 3 μM, 1 μM, 0.3 μM, 0.1 μM, 0.03 μM, 0.01 μM, 0.003 μM);
2 μL of ATP and 3 μL of the substrate Poly(4:1 Glu, Tyr)Peptide (Promega, USA) (the final concentrations being 10 μM and 0.2 μg/μL, respectively) were added to allow reaction at 37° C. for 1 hour;
5 μL of BTK kinase solution after reaction was taken and added into 5 μL of ADP-Glo™ (Promega, USA) reagent to allow reaction at room temperature for 40 mins so as to terminate the kinase reaction and exhaust the remaining ATP;
10 μL kinase detecting reagent was added to convert ADP to ATP, and newly synthesized ATP was detected using coupled luciferase/[…] reaction, then the IC50 values were calculated by using a plotting method based on the Envision reading.

Sequence of BTK protein kinase (Q06187 whole entry): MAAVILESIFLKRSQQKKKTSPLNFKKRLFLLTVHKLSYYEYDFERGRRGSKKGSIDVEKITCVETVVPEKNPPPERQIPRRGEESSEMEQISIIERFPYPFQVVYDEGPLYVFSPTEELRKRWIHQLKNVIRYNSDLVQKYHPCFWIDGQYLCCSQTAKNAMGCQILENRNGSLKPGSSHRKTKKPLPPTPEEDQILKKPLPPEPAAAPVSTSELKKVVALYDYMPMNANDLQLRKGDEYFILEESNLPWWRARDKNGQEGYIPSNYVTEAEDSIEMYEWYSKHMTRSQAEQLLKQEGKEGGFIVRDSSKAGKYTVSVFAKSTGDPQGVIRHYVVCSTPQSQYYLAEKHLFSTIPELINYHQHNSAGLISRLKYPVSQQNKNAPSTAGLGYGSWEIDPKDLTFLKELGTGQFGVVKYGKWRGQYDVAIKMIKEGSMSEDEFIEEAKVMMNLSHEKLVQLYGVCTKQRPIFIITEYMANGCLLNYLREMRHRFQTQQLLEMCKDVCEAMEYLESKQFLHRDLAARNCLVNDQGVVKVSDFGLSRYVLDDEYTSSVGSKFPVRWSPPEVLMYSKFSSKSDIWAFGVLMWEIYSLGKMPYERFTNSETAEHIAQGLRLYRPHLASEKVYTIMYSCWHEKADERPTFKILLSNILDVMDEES

Row | Compound | IC50 (values in nM) [nM] | IC50 (values given in μM) [nM]
1 | Cc1c(NC(=O)c2ccc(C(C)(C)C)cc2)cccc1-c1cc(Nc2ccc(C(=O)N3CCOCC3)c(NC(=O)CCl)c2)c(=O)n(C)c1 [Compound 2, N-(3-(5-((3-chloroacetamide-4-(morpholin-4-carbonyl)phenyl)amino)-1-methyl-6-oxo-1,6-dihydropyridin-3-yl)-2-methylphenyl)-4-(tert-butyl)benzamide] | 37.9 | –
2 | C=CC(=O)Nc1cc(Nc2cc(-c3cccc(NC(=O)c4ccc(C(C)(C)C)cc4)c3C)cn(C)c2=O)ccc1C(=O)N1CCN(C)CC1 [Compound 3, N-(3-(5-((3-acrylamide-4-(4-methylpiperazin-1-carbonyl)phenyl)amino)-1-methyl-6-oxo-1,6-dihydropyridin-3-yl)-2-methylphenyl)-4-(tert-butyl)benzamide] | 144 | –
3 | C#CC(=O)Nc1cc(C(=O)N2CCOCC2)ccc1Nc1cc(-c2cccc(NC(=O)c3ccc(C(C)(C)C)cc3)c2C)cn(C)c1=O [Compound 4, N-(3-(5-((2-propynamide-4-(morpholin-4-carbonyl)phenyl)amino)-1-methyl-6-oxo-1,6-dihydropyridin-3-yl)-2-methylphenyl)-4-(tert-butyl)benzamide] | 32.6 | –
4 | Cc1c(NC(=O)c2ccc(C(C)(C)C)cc2)cc(NC(=O)CCl)cc1-c1cc(Nc2ccc(C(=O)N3CCOCC3)cc2)c(=O)n(C)c1 [Compound 7, 4-(tert-butyl)-N-(5-(2-chloroacetamide)-2-methyl-3-(1-methyl-5-((4-(morpholin-4-carbonyl)phenyl)amino)-6-oxo-1,6-dihydropyridin-3-yl)phenyl)benzoylamide] | – | 1220
5 | C=CC(=O)Nc1cc(NC(=O)c2ccc(C(C)(C)C)cc2)c(C)c(-c2cc(Nc3ccc(C(=O)N4CCOCC4)cc3)c(=O)n(C)c2)c1 [Compound 8, 4-(tert-butyl)-N-(5-(2-acrylamide)-2-methyl-3-(1-methyl-5-((4-(morpholin-4-carbonyl)phenyl)amino)-6-oxo-1,6-dihydropyridin-3-yl)phenyl)benzoylamide] | – | 2610
6 | C=CC(=O)Nc1cc(Nc2cc(-c3cccc(NC(=O)c4ccc(C)cc4)c3C)cn(C)c2=O)ccc1C(=O)N1CCOCC1 [Compound 9, N-(3-(5-((3-acrylamide-4-(morpholin-4-carbonyl)phenyl)amino)-1-methyl-6-oxo-1,6-dihydropyridin-3-)-2-methylphenyl)-4-(methyl)benzoylamide] | 88.9 | –
7 | Cc1ccc(C(=O)Nc2cccc(-c3cc(Nc4ccc(C(=O)N5CCOCC5)c(NC(=O)CCl)c4)c(=O)n(C)c3)c2C)cc1 [Compound 11, N-(3-(5-((3-chloroacetamide-4-(morpholin-4-carbonyl)phenyl)amino)-1-methyl-6-oxo-1,6-dihydropyridin-3-yl)-2-methylphenyl)-4-(methyl)benzoylamide] | 152 | –
8 | C=CC(=O)Nc1cc(Nc2cc(-c3cccc(NC(=O)c4ccccc4)c3C)cn(C)c2=O)ccc1C(=O)N1CCOCC1 [Compound 12, N-(3-(5-((3-acrylamide-4-(morpholin-4-carbonyl)phenyl)amino)-1-methyl-6-oxo-1,6-dihydropyridin-3-yl)-2-methylphenyl)benzoylamide] | – | 4620
9 | C=CC(=O)Nc1cc(Nc2cc(-c3cccc(NC(=O)c4ccc(N5CCOCC5)cc4)c3C)cn(C)c2=O)ccc1C(=O)N1CCOCC1 [Compound 15, N-(3-(5-((3-acrylamide-4-(morpholin-4-carbonyl)phenyl)amino)-1-methyl-6-oxo-1,6-dihydropyridin-3-yl)-2-methylphenyl)-4-morpholinbenzoylamide] | 262 | –
10 | Cc1c(NC(=O)c2ccc(N3CCOCC3)cc2)cccc1-c1cc(Nc2ccc(C(=O)N3CCOCC3)c(NC(=O)CCl)c2)c(=O)n(C)c1 [Compound 16, N-(3-(5-((3-chloroacetamide-4-(morpholin-4-carbonyl)phenyl)amino)-1-methyl-6-oxo-1,6-dihydropyridin-3-yl)-2-methylphenyl)-4-morpholinbenzoylamide] | 437 | –
11 | C=CC(=O)Nc1cc(Nc2cc(-c3cccc(NC(=O)c4ccc5c(c4)OCO5)c3C)cn(C)c2=O)ccc1C(=O)N1CCOCC1 [Compound 18, N-(3-(5-((3-acrylamide-4-(morpholin-4-carbonyl)phenyl)amino)-1-methyl-6-oxo-1,6-dihydropyridin-3-yl)-2-methylphenyl)-benzo[d][1,3]dioxolanyl-5-carboxamide] | 187 | –
12 | Cc1c(NC(=O)c2ccc3c(c2)OCO3)cccc1-c1cc(Nc2ccc(C(=O)N3CCOCC3)c(NC(=O)CCl)c2)c(=O)n(C)c1 [Compound 19, N-(3-(5-((3-chloroacetamide-4-(morpholin-4-carbonyl)phenyl)amino)-1-methyl-6-oxo-1,6-dihydropyridin-3-yl)-2-methylphenyl)-benzo[d][1,3]dioxolanyl-5-carboxamide] | 197 | –
13 | Cc1c(NC(=O)c2ccc(C(C)(C)C)cc2)cccc1-c1cc(Nc2cccc(NC(=O)CCl)c2)c(=O)n(C)c1 [Compound 22, N-(3-(5-((3-chloroacetamidephenyl)amino)-1-methyl-6-oxo-1,6-dihydropyridin-3-yl)-2-methylphenyl)-4-(tert-butyl)benzamide] | – | 5530
14 | C=CC(=O)Nc1ccc(NC(=O)c2ccc(C(C)(C)C)cc2)c(C)c1-c1cc(Nc2ccc(C(=O)N3CCOCC3)cc2)c(=O)n(C)c1 [Compound 24] | – | 1770
15 | C=CC(=O)Nc1cc(Nc2cc(-c3cccc(NC(=O)c4ccc(C(C)(C)C)cc4)c3C)cn(C)c2=O)ccc1C [Compound 25, N-(3-(5-((3-acrylamide-4-methylphenyl)amino)-1-methyl-6-oxo-1,6-dihydropyridin-3-yl)-2-methylphenyl)-4-(tert-butyl)benzamide] | 212 | –
16 | Cc1ccc(Nc2cc(-c3cccc(NC(=O)c4ccc(C(C)(C)C)cc4)c3C)cn(C)c2=O)cc1NC(=O)CCl [Compound 26, N-(3-(5-((3-chloroacetamide-4-methylphenyl)amino)-1-methyl-6-oxo-1,6-dihydropyridin-3-yl)-2-methylphenyl)-4-(tert-butyl)benzamide] | 223 | –
17 | C=CC(=O)Nc1cc(Nc2cc(-c3cccc(NC(=O)c4ccc(C(C)(C)C)cc4)c3C)cn(C)c2=O)ccc1C(=O)N(C)C [Compound 28, 2-acrylamide-4-((5-(3-(4-(tert-butyl)benzamide)-2-methylphenyl)-1-methyl-2-oxo-1,2-dihydropyridin-3-yl)amino)-N,N-dimethylbenzoylamide] | 25 | –
18 | CCC(=O)Nc1cc(Nc2cc(-c3cccc(NC(=O)c4ccc(C(C)(C)C)cc4)c3C)cn(C)c2=O)ccc1C(=O)N(C)C [Compound 30, 2-propanamide-4-((5-(3-(4-(tert-butyl)benzamide)-2-methylphenyl)-1-methyl-2-oxo-1,2-dihydropyridin-3-yl)amino)-N,N-dimethylbenzoylamide] | 339 | –
19 | C=CC(=O)Nc1cc(Nc2cc(-c3cccc(NC(=O)c4ccc(C(C)(C)C)cc4)c3C)cn(C)c2=O)ccc1C(=O)N1CCCC1 [Compound 31, N-(3-(5-((3-acrylamide-4-(pyrrolidin-1-carbonyl)phenyl)amino)-1-methyl-6-oxo-1,6-dihydropyridin-3-yl)-2-methylphenyl)-4-(tert-butyl)benzamide] | 19 | –
20 | Cc1c(NC(=O)c2ccc(C(C)(C)C)cc2)cccc1-c1cc(Nc2ccc(C(=O)N3CCCC3)c(NC(=O)CCl)c2)c(=O)n(C)c1 [Compound 32, N-(3-(5-((3-chloroacetamide-4-(pyrrolidin-1-carbonyl)phenyl)amino)-1-methyl-6-oxo-1,6-dihydropyridin-3-yl)-2-methylphenyl)-4-(tert-butyl)benzamide] | 29 | –
21 | CCC(=O)Nc1cc(Nc2cc(-c3cccc(NC(=O)c4ccc(C(C)(C)C)cc4)c3C)cn(C)c2=O)ccc1C(=O)N1CCCC1 [Compound 33, N-(3-(5-((3-propanamide-4-(pyrrolidin-1-carbonyl)phenyl)amino)-1-methyl-6-oxo-1,6-dihydropyridin-3-yl)-2-methylphenyl)-4-(tert-butyl)benzamide] | 165 | –
22 | Cc1c(NC(=O)c2ccc(N(C)C)cc2)cccc1-c1cc(Nc2ccc(C(=O)N3CCOCC3)c(NC(=O)CCl)c2)c(=O)n(C)c1 [Compound 36, N-(3-(5-((3-chloroacetamide-4-(morpholin-4-carbonyl)phenyl)amino)-1-methyl-6-oxo-1,6-dihydropyridin-3-yl)-2-methylphenyl)-4-(dimethylamino)benzoylamide] | 24 | –
23 | CCC(=O)Nc1cc(Nc2cc(-c3cccc(NC(=O)c4ccc(N(C)C)cc4)c3C)cn(C)c2=O)ccc1C(=O)N1CCOCC1 [Compound 37, N-(3-(5-((3-propanamide-4-(morpholin-4-carbonyl)phenyl)amino)-1-methyl-6-oxo-1,6-dihydropyridin-3-yl)-2-methylphenyl)-4-(dimethylamino)benzo] | 646 | –
24 | C=CC(=O)Nc1cc(Nc2cc(-c3cccc(NC(=O)c4ccc(C(C)(C)C)cc4)c3C)cn(C)c2=O)ccc1C(=O)N1CCN(C(=O)OC(C)(C)C)CC1 [Compound 38, tertbutyl 4-(2-acrylamide-4-((5-(3-(4-(tert-butyl)benzamide)-2-methylphenyl)-1-methyl-2-oxo-1,2-dihydropyridin-3-yl)amino)benzoyl)piperazin-1-carboxylate] | 85 | –
